Earlier results on 9 compounds are cited in patent US20250205171A1, “TRANSDERMAL DELIVERY SYSTEMS FOR CERTAIN FACTOR Xa INHIBITORS AND RELATED METHODS FOR THEIR PREPARATION AND USE” (ARx, LLC, priority 2022, published 2025).

Molecules are shown by their SMILES.

For the compound `COc1ccc(-n2nc(C(N)=O)c3c2C(=O)N(c2ccc(N4CCCCC4=O)cc2)CC3)cc1` [apixaban], the water solubility entry is recorded as “about 0.11 mg/mL”.

Regarding `COc1ccc(NC(=O)c2ccc(C(=N)N(C)C)cc2)c(C(=O)Nc2ccc(Cl)cn2)c1` [betrixaban], the water solubility is 2500 to 2700 µg/mL.

For the compound `COc1ccc(C(=O)Nc2cccc(O)c2NC(=O)c2ccc(N3CCCN(C)CC3)cc2)cc1` [darexaban], the water solubility entry was “about 0.0048 mg/mL”.

In the case of `CN1CCc2nc(C(=O)N[C@@H]3C[C@@H](C(=O)N(C)C)CC[C@@H]3NC(=O)C(=O)Nc3ccc(Cl)cn3)sc2C1` [edoxaban], the water solubility result is “about 0.093 mg/mL”.

On to `CO[C@@H]1C[C@H](C(=O)Nc2ccc(-n3ccccc3=O)cc2F)N(C(=O)Nc2ccc(Cl)cc2)C1` [eribaxaban], for which the water solubility result is reported as “about 0.00717 mg/mL”.

In the case of `CO[C@H]1O[C@H](COS(=O)(=O)O)[C@@H](O[C@@H]2O[C@@H](C(=O)O)[C@@H](O[C@H]3O[C@H](COS(=O)(=O)O)[C@@H](O[C@@H]4O[C@H](C(=O)O)[C@@H](O[C@H]5O[C@H](COS(=O)(=O)O)[C@@H](O)[C@H](O)[C@H]5NS(=O)(=O)O)[C@H](O)[C@H]4O)[C@H](OS(=O)(=O)O)[C@H]3NS(=O)(=O)O)[C@H](O)[C@H]2OS(=O)(=O)O)[C@H](O)[C@H]1NS(=O)(=O)O` [fondaparinux], the water solubility entry is listed as “about 7.91 mg/mL”.

For `O=C([C@H](O)CS(=O)(=O)c1ccc2cc(Cl)ccc2c1)N1CCC(N2CCCNC2=O)CC1` [letaxaban], the water solubility entry is “about 0.217 mg/mL”.

In the case of `COC(=O)[C@H](Cc1cccc(C(=N)N)c1)[C@@H](C)NC(=O)c1ccc(-c2cc[n+]([O-])cc2)cc1` [otamixaban], the water solubility result is “about 0.0088 mg/mL”.

Regarding `O=C(NC[C@H]1CN(c2ccc(N3CCOCC3=O)cc2)C(=O)O1)c1ccc(Cl)s1` [rivaroxaban], the water solubility result was “about 0.01 mg/mL”.
